The values that follow are results of earlier work, collected in patent publication US7319013B2, “Serine hydroxymethyltransferase as a target for herbicides” (BASF Aktiengesellschaft, priority 2002, dated 2008).

The test system of data set [1] is SHMT from CHO cells. The conditions noted are these: by means of photo-linkage.
Data set [2] concerns SHMT from CHO cells.
For data set [3], the system named is SHMT from Euglena gracilis. The conditions noted are these: millimolar concentrations.
In the next data set the target is T1, ovine SHMT (Ovis aries, UniProt P35623).
T1 sequence (P35623 2-484 limits assumed): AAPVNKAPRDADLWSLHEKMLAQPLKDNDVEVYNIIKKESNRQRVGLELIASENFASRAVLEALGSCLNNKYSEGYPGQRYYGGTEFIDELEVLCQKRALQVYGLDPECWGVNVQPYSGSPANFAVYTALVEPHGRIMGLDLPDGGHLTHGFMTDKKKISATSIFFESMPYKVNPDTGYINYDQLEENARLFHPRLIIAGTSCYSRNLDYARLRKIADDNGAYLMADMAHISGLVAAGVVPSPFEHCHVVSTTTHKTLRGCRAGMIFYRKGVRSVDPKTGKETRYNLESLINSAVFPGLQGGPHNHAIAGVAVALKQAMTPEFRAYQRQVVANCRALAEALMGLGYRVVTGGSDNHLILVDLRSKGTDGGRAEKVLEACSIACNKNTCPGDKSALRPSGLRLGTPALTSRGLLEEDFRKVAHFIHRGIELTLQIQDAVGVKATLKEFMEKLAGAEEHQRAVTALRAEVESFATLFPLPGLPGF
The conditions noted are these: micromolar concentrations.

With `NC(Cn1ccc(=O)c(O)c1)C(=O)O` (stereo not drawn) [mimosine], the “binding to SHMT” value in the data set with SHMT from CHO cells [1] was “can be bound”. Also, the “inhibition of SHMT” value with SHMT from CHO cells [2] is on record as “does not inhibit it”. For the compound `NCC(=O)O` [glycin], the “inhibition of SHMT” value in data set [3] is “can be inhibited”. For the compound `N[C@@H](CS)C(=O)O` [cystein], the “inhibition of SHMT” value in data set [3] is reported as “can be inhibited”. Regarding `NOC[C@@H](N)C(=O)O` [O-amino-D-serine], the “inhibitory effect on SHMT” value on ovine SHMT was “have an inhibitory effect”. On to `N[C@@H](CO)C(=O)O` [serine], for which the “inhibition of SHMT” value in data set [3] is recorded as “can be inhibited”.
